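Protocol summary: plate cells (96-well), add compound at 5 concentrations, incubate 48 h, interpolate endpoints linearly. TGI marks complete inhibition of growth.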

What all share (test): growth of human tumour cells (NCI), 48 h
Experiment [1] has as its system KM20L2 colon.
The test system of experiment [2] is XF 498 CNS.
In experiment [3] the test system is DLD-1 colon.
Experiment [4] has as its system SNB-78 CNS.
In experiment [5] the test system is DMS 114 small cell lung.
Experiment [6] relates to LXFL 529 NSCLC.
The subject of experiment [7] is DMS 273 small cell lung.
Experiment [8] concerns HOP-18 NSCLC.
In experiment [9] the test system is RXF-631 renal.

Consider `[N-]=[N+]=NC1(Cc2ccccc2)C(=O)Nc2ccccc2C1=O` (configuration not stated), for which the TGI in experiment [1], in experiment [2], in [3], in experiment [4], in experiment [5] and in [6] was greater than 100 µM throughout. Besides, the TGI in experiment [7] and in experiment [8] was greater than 100 µM in each case.
Consider `Cc1cc(C(O)CCCc2ccccc2)cc(C)c1O` (configuration not stated), for which the TGI in experiment [1], in experiment [4], in experiment [5], in [6], in [9] and in [8] was greater than 100 µM throughout.
Consider `CC(=O)c1ccc(NC(=O)C(=O)CC(=O)c2sc(-n3nc(-c4ccccc4)cc3-c3ccccc3)nc2C)cc1`, for which the TGI in experiment [1], in [3], in experiment [4], in experiment [5], in experiment [6] and in experiment [9] was greater than 100 µM throughout. The compound further had a TGI in experiment [7] greater than 100 µM.
As for `Cc1cc(N(CCC#N)CCC#N)ccc1/C(Sc1ccccc1)=C(\NC(=O)/C=C/c1ccccc1)C(=O)Sc1ccccc1`, the TGI in [1] stood at 8.09 µM; in experiment [2], 30.4 µM; in experiment [3] it was 9.95 µM; in experiment [4] it was 24.6 µM; in experiment [5], 4.53 µM; in experiment [6], 12.6 µM. Besides, the TGI was greater than 32.2 µM in experiment [9], 26.2 µM in experiment [7] and 51.1 µM in experiment [8].
Turning to `Cc1c(N)c(C#N)c2n(C)c3ncccc3n2c1=O`, the TGI in [1], in experiment [2], in [3], in experiment [4], in [6] and in experiment [7] was greater than 100 µM each time. In [8], this compound displayed a TGI greater than 100 µM.
With `CCCCN(CCCC)CC(C(=O)Nc1ccc([N+](=O)[O-])cc1[N+](=O)[O-])/C(C)=N\NC(=O)c1ccncc1` (configuration not stated), the TGI in experiment [1], in experiment [2], in [3], in [4], in experiment [5] and in [6] was greater than 100 µM each time. The TGI in experiment [9] and in experiment [7] was greater than 100 µM each time.
Regarding `CCN(CC)CC(C(C)=O)C(c1ccccc1)c1c(O)c2ccccc2oc1=O` (configuration not stated), the TGI in experiment [1], in [2], in [3], in experiment [4], in experiment [5] and in [6] was greater than 100 µM throughout. For the same compound, the TGI in experiment [7] and in experiment [8] was greater than 100 µM throughout.
As for `C=C(CN(C)C)C(=O)c1ccccc1`, the TGI in experiment [1] was determined as 39.8 µM; in experiment [2], 29.9 µM; in [3] it was 11.5 µM; in experiment [4], 62.6 µM; in experiment [5], 11.1 µM; in experiment [6], 5.64 µM. Besides, the TGI in [9] amounted to 48.5 µM; in experiment [7] it was 39.2 µM; in [8] it was 14.8 µM.
Turning to `CCCN(CCCC(NC(C)=O)C(=O)NCc1ccccc1)C(=O)N(C)N=O` (configuration not stated), the TGI in [1], in [2], in [3], in [4], in [5] and in experiment [6] was greater than 100 µM throughout. Moreover, the TGI in experiment [7] was greater than 100 µM.
As for `CC1=CP(=O)(OC(C)C)C=C(C)C1=C(Cl)Cl` (configuration not stated), the TGI in experiment [1], in experiment [2], in experiment [3], in experiment [5], in experiment [6] and in experiment [9] was greater than 100 µM each time. Further, the TGI in [7] and in [8] was greater than 100 µM each time.
With `CC12CCC(=O)N1[C@@H](c1ccccc1)[C@@H](c1ccccc1)O2` (some centres not stated), the TGI in [1], in experiment [2], in experiment [3], in experiment [5] and in experiment [6] was greater than 100 µM in each case.

For the origin of these results see PubChem BioAssay (NCI).
